Target: T1, human FXR (Homo sapiens, UniProt Q96RI1)
T1 construct: expressed in transfected cells; host or cells: HEK293 cells stably carrying a 5xGal4-response-element firefly luciferase reporter, transiently transfected with pcDNA3.1-Gal4-FXR
T1 sequence (Q96RI1 262-486 limits assumed): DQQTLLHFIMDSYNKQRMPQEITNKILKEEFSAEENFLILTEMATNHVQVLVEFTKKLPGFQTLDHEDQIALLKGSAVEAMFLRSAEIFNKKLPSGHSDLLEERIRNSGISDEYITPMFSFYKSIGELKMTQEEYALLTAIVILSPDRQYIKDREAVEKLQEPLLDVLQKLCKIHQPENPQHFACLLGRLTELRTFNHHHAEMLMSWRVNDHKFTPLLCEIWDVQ
Assay: transient human FXR/Gal4-luciferase reporter assay
Format: cell-based
Details: Gal4-hFXR LBD fusion, luciferase reporter in HEK293 cells; response relative to 8 μM GW-4064
Method: A Gal4-hFXR fusion construct reporter system was used as the primary assay to characterize compound activity. A construct including 5 copies of the Gal4 promoter response element upstream of a firefly luciferase reporter cDNA was stably expressed in HEK293 cells. This reporter cell line was maintained in Dulbecco's Modified Eagle's medium (DMEM; Gibco) supplemented with 1% penicillin-streptomycin (P/S) solution, 500 μg/mL Zeocin and 10% charcoal/dextran-treated fetal bovine serum (cs-FBS) at 37° C. in a humidified 5% CO2 atmosphere. […] The day prior to transfection, the reporter cells in culture are detached from the plate with trypsin and plated into a T75 flask at a sufficient density to achieve approximately 90% confluence the next morning. […] The mixture is further diluted with 10 mL of a solution comprised of DMEM, 10% cs-FBS, and 1% P/S immediately prior to transferring to the cells. The maintenance culture media is aspirated from the cells and the final transfection mixture is added before the cells are incubated overnight at 37° C. in a humidified 5% CO2 atmosphere. This protocol can be scaled up, and the transiently transfected cells can be cryopreserved in an assay-ready format. For compound testing, 100 nL of the compounds (serial dilutions in DMSO) are dispensed with an Echo acoustic dispenser (Labcyte) into the wells of a Corning/Costar clear bottom 384-well white plate. The transfected cells are harvested, counted, and diluted such that 10-25,000 cells in 25 μL are plated into each well of the 384-well compound assay plate. The compound-treated cells are incubated overnight at 37° C. in a humidified 5% CO2 atmosphere. The next morning 25 μL of Steady-Glo (Promega) are added to each well of the plate, the mixture is incubated for 15 min. with shaking, and luminescence is measured on an Envision (Perkin Elmer) plate reader.

Row | SMILES | EC50 [nM]
1 | CC(F)(F)c1nc(C23CCC(CN(C(=O)C4CCOCC4)c4cccc(-c5cn[nH]c(=O)c5)c4)(CC2)CC3)no1 [Example 129, N-((4-(5-(1,1-difluoroethyl)-1,2,4-oxadiazol-3-yl)bicyclo[2.2.2]octan-1-yl)methyl)-N-(3-(6-oxo-1,6-dihydropyridazin-4-yl)phenyl)tetrahydro-2H-pyran-4-carboxamide] | 1480
2 | CC(C)(C)c1noc(C23CCC(CN(C(=O)C4CCC(F)(F)CC4)c4cc(F)cc(-c5nc(C6CC6)no5)c4)(CC2)CC3)n1 [Example 114, N-((4-(3-(tert-butyl)-1,2,4-oxadiazol-5-yl)bicyclo[2.2.2]octan-1-yl)methyl)-N-(3-(3-cyclopropyl-1,2,4-oxadiazol-5-yl)-5-fluorophenyl)-4,4-difluorocyclohexane-1-carboxamide] | 325
3 | Cn1nc(C2CC2)cc1C12CCC(CN(C(=O)C3CCC(F)(F)CC3)c3cccc(-c4cc(C5CC5)on4)c3)(CC1)CC2 [Example 163, N-((4-(3-cyclopropyl-1-methyl-1H-pyrazol-5-yl)bicyclo[2.2.2]octan-1-yl)methyl)-N-(3-(5-cyclopropylisoxazol-3-yl)phenyl)-4,4-difluorocyclohexane-1-carboxamide] | 130
4 | CC(C)(C)OC(=O)N1CCC(C(=O)N(CC23CCC(c4nc(C5CC5)no4)(CC2)CC3)c2cccc(-c3nc(C(F)F)co3)c2)CC1 [Example 38, tert-butyl 4-(((4-(3-cyclopropyl-1,2,4-oxadiazol-5-yl)bicyclo[2.2.2]octan-1-yl)methyl)(3-(4-(difluoromethyl)oxazol-2-yl)phenyl)carbamoyl) piperidine-1-carboxylate] | 4390
5 | COCc1nc(-c2cccc(N(CC34CCC(c5nc(C6CC6)no5)(CC3)CC4)C(=O)C3CCN(C(=O)OC(C)(C)C)CC3)c2)cs1 [Example 48, tert-butyl 4-(((4-(3-cyclopropyl-1,2,4-oxadiazol-5-yl)bicyclo[2.2.2]octan-1-yl)methyl)(3-(2-(methoxymethyl)thiazol-4-yl)phenyl)carbamoyl)piperidine-1-carboxylate] | 856
6 | O=C(N1CCC(N2CCCCC2)CC1)N(CC12CCC(c3nc(C4CC4)no3)(CC1)CC2)c1cccc(-c2nc(C3CC3)no2)c1 [Example 64, N-((4-(3-cyclopropyl-1,2,4-oxadiazol-5-yl)bicyclo[2.2.2]octan-1-yl)methyl)-N-(3-(3-cyclopropyl-1,2,4-oxadiazol-5-yl)phenyl)-[1,4′-bipiperidine]-1′-carboxamide] | 4820
7 | CN1CCC(C(=O)N(CC23CCC(c4cc(C5CC5)nn4C)(CC2)CC3)c2cccc(-c3ccc(S(C)(=O)=O)cc3)c2)CC1 [Example 136, N-((4-(3-cyclopropyl-1-methyl-1H-pyrazol-5-yl)bicyclo[2.2.2]octan-1-yl)methyl)-1-methyl-N-(4′-(methylsulfonyl)-[1,1′-biphenyl]-3-yl)piperidine-4-carboxamide] | 4000
8 | O=C(C1CCC(F)(F)CC1)N(CC12CCC(c3nc(CC4CC4)no3)(CC1)CC2)c1cccc(-c2nc(CC3CC3)no2)c1 [Example 42, N-((4-(3-(cyclopropylmethyl)-1,2,4-oxadiazol-5-yl)bicyclo[2.2.2]octan-1-yl)methyl)-N-(3-(3-(cyclopropylmethyl)-1,2,4-oxadiazol-5-yl)phenyl)-4,4-difluorocyclohexane-1-carboxamide] | 536
9 | CC(C)(F)c1nc(C23CCC(CN(C(=O)C4CCOCC4)c4cccc(-c5cn[nH]c(=O)c5)c4)(CC2)CC3)no1 [Example 128, N-((4-(5-(2-fluoropropan-2-yl)-1,2,4-oxadiazol-3-yl)bicyclo[2.2.2]octan-1-yl)methyl)-N-(3-(6-oxo-1,6-dihydropyridazin-4-yl)phenyl)tetrahydro-2H-pyran-4-carboxamide] | 4000
10 | CCc1noc(-c2cccc(N(C(=O)C3CCCCC3)C(C)C34CCC(c5nc(C)no5)(CC3)CC4)c2)n1 (single isomer, unassigned) [Example 71, N-(3-(3-ethyl-1,2,4-oxadiazol-5-yl)phenyl)-N-(1-(4-(3-methyl-1,2,4-oxadiazol-5-yl)bicyclo[2.2.2]octan-1-yl)ethyl)cyclohexanecarboxamide] | 547
11 | O=C(N1CCOCC1)N(CC12CCC(c3nc(C4CC4)no3)(CC1)CC2)c1cccc(-c2nc(C3CC3)no2)c1 [Example 56, N-((4-(3-cyclopropyl-1,2,4-oxadiazol-5-yl)bicyclo[2.2.2]octan-1-yl)methyl)-N-(3-(3-cyclopropyl-1,2,4-oxadiazol-5-yl)phenyl)morpholine-4-carboxamide] | 739
12 | COc1cc(-c2cccc(N(CC34CCC(c5nnc(C)s5)(CC3)CC4)C(=O)C3CCOCC3)c2)ccn1 [Example 81, N-(3-(2-methoxypyridin-4-yl)phenyl)-N-((4-(5-methyl-1,3,4-thiadiazol-2-yl)bicyclo[2.2.2]octan-1-yl)methyl)tetrahydro-2H-pyran-4-carboxamide] | 2500
13 | CCOc1ccc(-c2cccc(N(CC34CCC(c5nc(C(C)(C)C)no5)(CC3)CC4)C(=O)C3CCC(OC)CC3)c2)cc1 (single isomer, unassigned) [Example 146, N-((4-(3-(tert-butyl)-1,2,4-oxadiazol-5-yl)bicyclo[2.2.2]octan-1-yl)methyl)-N-(4′-ethoxy-[1,1′-biphenyl]-3-yl)-4-methoxycyclohexane-1-carboxamide] | 402
14 | CCOc1ccc(-c2cc(N(CC34CCC(c5noc(C(C)(F)F)n5)(CC3)CC4)C(=O)C3CCC(O)(C(F)(F)F)CC3)ccc2F)cc1 (single isomer, unassigned) [Example 165, N-((4-(5-(1,1-difluoroethyl)-1,2,4-oxadiazol-3-yl)bicyclo[2.2.2]octan-1-yl)methyl)-N-(4′-ethoxy-6-fluoro-[1,1′-biphenyl]-3-yl)-4-hydroxy-4-(trifluoromethyl)cyclohexane-1-carboxamide] | 263

Other lines, results leading:

Row | EC50 [nM] | SMILES
15 | 75 | CCOc1cc(-c2cccc(N(CC34CCC(c5nc(C6CC6)no5)(CC3)CC4)C(=O)C3CCCCC3)c2)no1 [Example 27, N-((4-(3-cyclopropyl-1,2,4-oxadiazol-5-yl)bicyclo[2.2.2]octan-1-yl)methyl)-N-(3-(5-ethoxyisoxazol-3-yl)phenyl)cyclohexanecarboxamide]
16 | 799 | CCc1noc(-c2cccc(N(CC34CCC(c5nc(C6CC6)no5)(CC3)CC4)C(=O)C3CCC(F)(F)CC3)c2)n1 [Example 5, N-((4-(3-cyclopropyl-1,2,4-oxadiazol-5-yl)bicyclo[2.2.2]octan-1-yl)methyl)-N-(3-(3-ethyl-1,2,4-oxadiazol-5-yl)phenyl)-4,4-difluorocyclohexane-1-carboxamide]
17 | 158 | CCc1noc(-c2cccc(N(CC34CCC(c5nc(C)no5)(CC3)CC4)C(=O)C3CCCCC3)c2)n1 [Example 3]
18 | 787 | COc1nccc(-c2cccc(N(CC34CCC(c5nc(C6CC6)no5)(CC3)CC4)C(=O)C3CCC(F)(F)CC3)c2)n1 [Example 85, N-((4-(3-cyclopropyl-1,2,4-oxadiazol-5-yl)bicyclo[2.2.2]octan-1-yl)methyl)-4,4-difluoro-N-(3-(2-methoxypyrimidin-4-yl)phenyl)cyclohexane-1-carboxamide]
19 | 1330 | CCn1cc(-c2cccc(N(CC34CCC(c5nc(C6CC6)no5)(CC3)CC4)C(=O)C3CCCOC3)c2)oc1=O (racemic) [Example 52, N-((4-(3-cyclopropyl-1,2,4-oxadiazol-5-yl)bicyclo[2.2.2]octan-1-yl)methyl)-N-(3-(3-ethyl-2-oxo-2,3-dihydrooxazol-5-yl)phenyl)tetrahydro-2H-pyran-3-carboxamide]
20 | 1200 | CCOC(=O)c1nc(-c2cccc(N(CC34CCC(c5nc(C6CC6)no5)(CC3)CC4)C(=O)C3CCCCC3)c2)cs1 [Example 31, Ethyl 4-(3-(N-((4-(3-cyclopropyl-1,2,4-oxadiazol-5-yl)bicyclo[2.2.2]octan-1-yl)methyl)cyclohexanecarboxamido)phenyl)thiazole-2-carboxylate]
21 | 74 | O=C(C1CCCOC1)N(CC12CCC(c3nc(C4CC4)no3)(CC1)CC2)c1cccc(-c2cnc(C3CC3)o2)c1 (racemic) [Example 25, N-((4-(3-cyclopropyl-1,2,4-oxadiazol-5-yl)bicyclo[2.2.2]octan-1-yl)methyl)-N-(3-(2-cyclopropyloxazol-5-yl)phenyl)tetrahydro-2H-pyran-3-carboxamide]

Reference: patent US12227496B2 (BRISTOL-MYERS SQUIBB COMPANY, priority 2019, dated 2025)
